Reference: patent US8470868B2, “Formulation for the prevention of cardiovascular disease” (priority 2000, dated 2013)
Marks after values point to notes of the source that are not given here.

How the values were obtained:
[1] = randomised trials, high risk and low risk persons; platelet function not measured; cited from earlier work
[2] = Prevalence of adverse effects in randomised placebo controlled trials (treated minus control); type: in vivo, human; conditions: daily dose: hydrochlorothiazide 12.5 mg, atenolol 25 mg, enalapril 5 mg, aspirin 75 mg; for Prevalence of any adverse effect in randomised trials (treated minus control) / Prevalence of serious adverse effects (those that warranted withdrawal from randomised trial) (treated minus control): atorvastatin 10 mg, folic acid 0.8 mg
Description: The dose of each medication has been chosen to maximise the ratio of benefit to hazard. It is recognised that some persons taking a combination of six drugs would develop adverse effects that were unacceptable. The adverse effects attributable to each of the component medications would be made clear to persons taking the combined formulation and alternative formulations omitting one or more of the component ingredients, with or without a substitute ingredient, would be available for persons unable to tolerate one component. […]

[3] = atorvastatin 10 mg daily; cited from earlier work
[4] = Expected reduction in risk of stroke from the risk factor change (cohort studies and randomised trials); type: in vivo, human; conditions: daily dose: hydrochlorothiazide 12.5 mg, atenolol 25 mg, enalapril 5 mg, atorvastatin 10 mg, aspirin 75 mg, folic acid 0.8 mg
Description: This combined estimate is based on the fact that the effects on the four different risk factors are unrelated and so the expected effects of changing each one will be independent of each other. This expectation is supported by two classes of evidence. […] For example the ratio of the risk of a disease event in persons with high blood pressure and the risk in persons with low blood pressure is similar, irrespective of the values of serum cholesterol and other risk factors. Second, some randomised clinical trials have used combinations of two of the drugs (for example beta blockers and aspirin) in patients with ischaemic heart disease and have shown that the effects are independent (that is, the relative risk in patients who took two drugs (compared with the risk in those who took none) was similar to the relative risk in persons taking one of the drugs multiplied by the relative risk in persons taking the other drug). Accordingly, the effect of the different drugs in combination in Table 3 has been calculated by multiplying the effects of each as shown in footnotes h and j.
The corresponding reductions in incidence of ischaemic heart disease and stroke are those to be expected from the blood pressure reductions, from published analyses of cohort studies and randomised controlled trials of blood pressure and ischaemic heart disease and stroke (references 1, 5).

[5] = Randomised controlled trials of folic acid: plasma homocysteine reduction; type: in vivo, human; conditions: unpublished randomised controlled trial performed by the applicant
[6] = cited from earlier work

Structure (SMILES)	Effect on the incidence of heart attacks and stroke [1]	Prevalence of any adverse effect in randomised trials (treated minus control) [2]	Prevalence of serious adverse effects (those that warranted withdrawal from randomised trial) (treated minus control) [2]	Associated physiological variable (reduction produced by drug): serum cholesterol [3]	Expected reduction in risk of stroke [4]	Commonest adverse effects [2]	Lowest folic acid dose that produces the maximum reduction in homocysteine [5] [mg]	Associated physiological variable (reduction produced by drug): plasma/serum homocysteine ([6]; folic acid 0.8 mg daily)	Maximum reduction in plasma homocysteine ([6]; meta-analysis of published trials, folic acid doses between 1 mg and 5 mg, maximum produced by 1 mg) [µmol/L]
CC(=O)Oc1ccccc1C(=O)O [Aspirin]	reduces the incidence of heart attacks and stroke in both high risk and low risk persons	1.8%^b	0.7%^b						
CC(C)NCC(O)COc1ccc(CC(N)=O)cc1 (centres unmarked) [Atenolol]		5.6%^a	0.9%^a						
CC(C)c1c(C(=O)Nc2ccccc2)c(-c2ccccc2)c(-c2ccc(F)cc2)n1CC[C@@H](O)C[C@@H](O)CC(=O)O [Atorvastatin]		0.1%	<0.1%	(1.8 mmol/l	50%^d				
CCOC(=O)[C@H](CCc1ccccc1)N[C@@H](C)C(=O)N1CCC[C@H]1C(=O)O [Enalapril]		2.1%^a	0.2%^a			cough			
Nc1nc2ncc(CNc3ccc(C(=O)N[C@@H](CCC(=O)O)C(=O)O)cc3)nc2c(=O)[nH]1 [Folic acid]		<0.1%	<0.1%		10%^g		0.8	(3 μmol/l	3
NS(=O)(=O)c1cc2c(cc1Cl)NCNS2(=O)=O [Hydrochlorothiazide]		1.4%^a	0.1%^a						
